Test results: BindingDB's records for doi:10.1021/jm2005089 (National Human Genome Research Institute, 2011)

Biological target: T1, Polyunsaturated fatty acid lipoxygenase ALOX12 (Homo sapiens, UniProt P18054)
T1 sequence (P18054 whole entry): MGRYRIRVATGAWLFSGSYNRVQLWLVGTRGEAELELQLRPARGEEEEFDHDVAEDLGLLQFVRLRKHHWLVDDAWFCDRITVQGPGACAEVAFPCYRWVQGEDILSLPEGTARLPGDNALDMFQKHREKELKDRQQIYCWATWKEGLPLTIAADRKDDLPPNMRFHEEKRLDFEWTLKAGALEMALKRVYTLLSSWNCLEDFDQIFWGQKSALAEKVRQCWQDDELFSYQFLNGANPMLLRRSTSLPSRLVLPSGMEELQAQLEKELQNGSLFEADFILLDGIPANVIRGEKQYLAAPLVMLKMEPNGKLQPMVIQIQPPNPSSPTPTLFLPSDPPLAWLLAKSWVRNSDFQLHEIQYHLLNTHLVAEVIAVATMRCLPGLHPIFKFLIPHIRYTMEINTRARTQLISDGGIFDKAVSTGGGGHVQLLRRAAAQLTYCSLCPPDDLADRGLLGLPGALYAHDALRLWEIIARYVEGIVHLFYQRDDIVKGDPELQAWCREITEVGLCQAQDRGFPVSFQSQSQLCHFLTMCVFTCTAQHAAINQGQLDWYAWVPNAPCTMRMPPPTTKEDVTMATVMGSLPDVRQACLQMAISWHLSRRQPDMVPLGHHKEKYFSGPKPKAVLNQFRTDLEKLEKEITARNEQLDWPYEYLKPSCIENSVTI
Experiment: Competitive inhibition of human platelet-type N-terminally His6-tagged 12-lipoxygenase assessed as 12-HPETE formation using arachidonic acid by Michaelis-Menten equation analysis

Ki: 0.7 µM
Structure (SMILES): CC(=O)NC(c1cccs1)c1cc(Cl)c2cccnc2c1O (stereo unspecified)
